# Earlier results as cited in patent US11351151B2, “Compound having anticancer activity and preparation method and application” (3D Medicines (Beijing) Co., Ltd., priority 2016, dated 2022).
# Settings: liver cancer patients, phase III; cited from earlier work
smiles,measurement,value
CNC(=O)c1cc(Oc2ccc(NC(=O)Nc3ccc(Cl)c(C(F)(F)F)c3)cc2)ccn1 [Sorafenib],ORR (overall response rate),6.9%
same,TTP (time to progression),4.0 months
